Reference: paper PMC6199744, “Development of Chemical Proteomics for the Folateome and Analysis of the Kinetoplastid Folateome” (ACS Infectious Diseases, 2018)

Tested on: L. major lysate proteins
Experiment: Multitargeted bead mixture chemoproteomics, single concentration competition, proteome-wide
Format: binding
Conditions: for fold change: vehicle control = 1

NCCOCCOCC(=O)Nc1nc2ncc(CNc3ccc(C(=O)NC(CCC(=O)O)C(=O)O)cc3)nc2c(=O)[nH]1 (stereo not drawn) [compound 6] was tested, and the fold change (protein LMJF.28.0710 HYPOTHETICAL PROTEIN, CONSERVED (SNARE associated Golgi protein, putative)) was 1, the “fold change vs vehicle control” value (protein LMJF.28.0930 HY[…], CONSERVED) was 1.01 and the “fold change vs vehicle control” value (protein LMJF.28.0960 40S RIBOSOMAL PROTEIN S14) was 1.09. The “fold change vs vehicle control” value (protein LMJF.28.1530 ATP DEPENDENT DEAD-BOX HELICASE, PUTATIVE) was 0.91, the “fold change relative to vehicle control” value (protein LMJF.28.1730, PROTEASOME REGULATORY NON-ATP-ASE SUBUNIT 2, PUTATIVE) was 1.1 and the “fold change relative to vehicle control” value (protein LMJF.28.2310, EUKARYOTIC TRANSLATION INITIATION FACTOR, PUTATIVE) was 1.1. The “fold change vs vehicle control” value (protein LMJF.28.2430 VACUOLAR ATP SYNTHASE SUBUNIT B, PUTATIVE) was 0.97, the “fold change relative to vehicle control” value (protein LMJF.28.2770, HEAT-SHOCK PROTEIN HSP70, PUTATIVE) was 1.35 and the fold change (protein LMJF.28.2910 GLUTAMATE DEHYDROGENASE, PUTATIVE) was 0.9. The “fold change vs vehicle control” value (protein LMJF.29.0120 PROTEASOME REGULATORY NON-ATPASE SUBUNIT, PUTATIVE) was 1, the fold change (protein LMJF.29.0620 ATP-BINDING CASSETTE PROTEIN SUBFAMILY A, MEMBER 10, PUTATIVE) was 0.81 and the “fold change vs vehicle control” value (protein LMJF.29.0760 […] BI[…], PUTATIVE,HEAT SHOCK PROTEIN 90, PUTATIVE) was 1.05. The “fold change relative to vehicle control” value (protein LMJF.29.0850, HIGH MOBILITY GROUP PROTEIN HOMOLOG TDP-1, PUTATIVE) was 1.17, the “fold change vs vehicle control” value (protein LMJF.29.0940 HY[…], CONSERVED) was 1.19 and the “fold change vs vehicle control” value (protein LMJF.29.1160 TRYPAREDOXIN) was 0.8. For the same compound, the “fold change vs vehicle control” value (protein LMJF.29.1240 HYPOTHETICAL PROTEIN, UNKNOWN FUNCTION) was 0.95, the “fold change vs vehicle control” value (protein LMJF.29.1270 100 kDa heat shock protein (Hsp100)) was 1.02 and the “fold change vs vehicle control” value (protein LMJF.29.1310 CARNITINE/CHOLINE ACETYLTRANSFERASE, PUTATIVE) was 1.07. For the same compound, the “fold change relative to vehicle control” value (protein LMJF.29.1760, PAR[…] PROTEIN 1D, PUTATIVE) was 1.02, the “fold change vs vehicle control” value (protein LMJF.29.1780 DIPHTHAMIDE SYNTHESIS PROTEIN, PUTATIVE) was 0.96 and the fold change (protein LMJF.29.2200 GTP-BINDING PROTEIN, PUTATIVE (dynamin-1-like protein)) was 1.03. For the same compound, the fold change (protein LMJF.29.2310 ENOYL-COA HYDRATASE/ISOMERASE-LIKE PROTEIN) was 0.99, the “fold change vs vehicle control” value (protein LMJF.29.2360 ASPARTYL AMINOPEPTIDASE, PUTATIVE,METALLO-PEPTIDASE, CLAN MH, FAMILY M20) was 0.95 and the fold change (protein LMJF.29.2860 40S RIBOSOMAL PROTEIN S19-LIKE PROTEIN) was 1.12. The fold change (protein LMJF.30.0580 HY[…], CONSERVED (AMP-binding enzyme, putative)) was 1.03, the fold change (protein LMJF.30.0850 SURFACE PROTEIN AMASTIN, PUTATIVE) was 0.98 and the “fold change vs vehicle control” value (protein LMJF.30.1250 PYRIDOXAL KINASE, PUTATIVE) was 1.24. For the same compound, the “fold change vs vehicle control” value (protein LMJF.30.2580 RETICULON DOMAIN PROTEIN, 22 KDA POTENTIALLY AGGRAVATING PROTEIN (PAPLE22)) was 0.95, the “fold change relative to vehicle control” value (protein LMJF.30.3090, HY[…], CONSERVED (RNA-binding protein 42, putative)) was 1.16 and the “fold change vs vehicle control” value (protein LMJF.30.3240 GLUTAMYL-TRNA SYNTHETASE, PUTATIVE) was 1.11. The fold change (protein LMJF.30.3380 PAS-DOMAIN CONTAINING PHOSPHOGLYCERATE KINASE, PUTATIVE) was 0.84, the fold change (protein LMJF.30.3430 HY[…], CONSERVED (protein mkt1, putative)) was 1.04 and the fold change (protein LMJF.30.3520 S-ADENOSYLMETHIONINE SYNTHETASE) was 0.86. The fold change (protein LMJF.30.3570 ZINC FINGER-DOMAIN PROTEIN, PUTATIVE) was 0.86, the “fold change relative to vehicle control” value (protein LMJF.31.0080, HYPOTHETICAL PROTEIN, CONSERVED) was 1.2 and the “fold change vs vehicle control” value (protein LMJF.31.0340 AMINO ACID PERMEASE, PUTATIVE) was 1.17. For the same compound, the fold change (protein LMJF.31.1130 N-ACYL-L-AMINO ACID AMIDOHYDROLASE, PUTATIVE) was 0.98, the “fold change vs vehicle control” value (protein LMJF.31.1640 THIOLASE PROTEIN-LIKE PROTEIN) was 1.09 and the “fold change relative to vehicle control” value (protein LMJF.31.2150, PROSTAGLANDIN F2-ALPHA SYNTHASE/D-ARABINOSE DEHYDROGENASE) was 1.02. The “fold change vs vehicle control” value (protein LMJF.31.2250 3,2-TRANS-ENOYL-COA ISOMERASE, MIT[…], PUTATIVE) was 0.97, the “fold change vs vehicle control” value (protein LMJF.32.0750 RNA BINDING PROTEIN, PUTATIVE) was 1.19 and the “fold change vs vehicle control” value (protein LMJF.32.1060 DYNEIN, PUTATIVE) was 0.96. For the same compound, the “fold change relative to vehicle control” value (protein LMJF.32.1820, IRON […], PUTATIVE) was 1.08, the “fold change relative to vehicle control” value (protein LMJF.32.2320, C-14 STEROL REDUCTASE, PUTATIVE) was 1.02 and the “fold change relative to vehicle control” value (protein LMJF.32.2950, NUCLEOSIDE DIPHOSPHATE KINASE B) was 0.94. The “fold change vs vehicle control” value (protein LMJF.32.3870 MYOSIN XXI) was 0.97, the “fold change relative to vehicle control” value (protein LMJF.33.0240, THIOL-DEPENDENT REDUCTASE 1) was 1.18 and the fold change (protein LMJF.33.0280 HYPOTHETICAL PROTEIN, CONSERVED) was 0.92. The “fold change relative to vehicle control” value (protein LMJF.33.0890, HY[…], CONSERVED) was 1.01, the “fold change vs vehicle control” value (protein LMJF.33.1070 HY[…], UNKNOWN FUNCTION) was 1.07 and the “fold change vs vehicle control” value (protein LMJF.33.1330 CYSTEINE CONJUGATE BETA-LYASE, AMINOTRANSFERASE- LIKE PROTEIN) was 1.04. The fold change (protein LMJF.33.1590 HYPOTHETICAL PROTEIN, CONSERVED (3-ketoacyl-CoA reductase, putative)) was 0.97, the “fold change relative to vehicle control” value (protein LMJF.33.1860, ATP-BINDING CASSETTE PROTEIN SUBFAMILY D, MEMBER 3, PUTATIVE) was 1.15 and the “fold change relative to vehicle control” value (protein LMJF.33.2340, SUCCINYL-COA:3-KETOACID-COENZYME A TRANSFERASE, MIT[…], PUTATIVE) was 1.18. For the same compound, the “fold change relative to vehicle control” value (protein LMJF.33.2440, HY[…], CONSERVED) was 1.19, the “fold change relative to vehicle control” value (protein LMJF.33.2540, CARBOXYPEPTIDASE, PUTATIVE,METALLO-PEPTIDASE, CLAN MA(E), FAMILY M32) was 1.79 and the fold change (protein LMJF.33.3150 40S RIBOSOMAL PROTEIN S13, PUTATIVE) was 0.88. The “fold change relative to vehicle control” value (protein LMJF.34.0140, MALATE DEHYDROGENASE) was 1.47, the “fold change vs vehicle control” value (protein LMJF.34.0440 RIBOSOMAL PROTEIN S25) was 1.1 and the “fold change relative to vehicle control” value (protein LMJF.34.2580, HY[…], CONSERVED (ALBA-domain protein 3)) was 1.11. For the same compound, the “fold change relative to vehicle control” value (protein LMJF.34.3250, PUTATIVE PYRUVATE/INDOLE-PYRUVATE CARBOXYLASE, PUTATIVE) was 0.98, the fold change (protein LMJF.34.4370 20S […] 7 SUBUNIT, (PUTATIVE)) was 0.96 and the “fold change vs vehicle control” value (protein LMJF.34.4620 HY[…], CONSERVED) was 1.01. For the same compound, the fold change (protein LMJF.35.0070 PROHIBITIN, PUTATIVE) was 1.04, the “fold change vs vehicle control” value (protein LMJF.35.0360 ENOYL-COA HYDRATASE/ISOMERASE FAMILY PROTEIN, CONSERVED) was 1.24 and the fold change (protein LMJF.35.0370 ATP-DEPENDENT DEAD-BOX RNA HELICASE, PUTATIVE) was 1.08.
